Earlier results in article PMC7775502, “Molecular Screening Strategy to Identify a Non-invasive Delivery Mechanism for the Treatment of Middle Ear Disorders” (Frontiers in Medicine, 2020).

What was measured:
[1] = system: intact tympanic membrane (TM); details: peptide phage, incubation 1 h on the exterior surface of the TM, ref Kurabi et al. ([26])
Source text: Table 1 The sequences and ME recovery of the trans-TM, 12-mer backbone peptides (TMT-2 and TMT-3) plus the top 18-mer peptide phages from the 18-mer screen. | column: Mean recovery from ME (PFUs)

human TM = details: in vitro two-chamber assay, discarded TM fragments from patients undergoing TM repair; ref [28]
Source text: (§1) We first tested trans-TM phage TMT-3 transport across TMs from NTHi-infected MEs of rats as well as from rats with normal MEs.

rat TM = details: in vitro two-chamber assay, ref [28]
Source text: as §1

rabbit TM fragments = details: in vitro two-chamber assay, uninfected MEs; ref [28]
Source text: as §1

guinea pig TM fragments = system: guinea pig TM fragments; design: method as in PMID 30087425; details: in vitro two-chamber assay, uninfected MEs; ref [28]
[2] = system: intact TM of ex vivo ME bulla; details: review of the authors' earlier work
Method: In order to learn more about the mechanisms of phage transport phenomena, several experiments were designed to evaluate the impact of concentration, temperature, and oxygen levels on transport across the TM. […] Next, we tested the sensitivity of transport to oxygen deprivation and temperature using the ex vivo, intact ME bulla. When ME recovery of phage TMT-3 was assessed at various times after death, transport was observed up to 6 h postmortem, after which it ceased. Wh ...

Sequence | Mean recovery from ME (PFUs) [1] | other results
TEVTSRSADSTKTTHLTL [TMT-3(18)-3, M13 bacteriophage expressing 18-mer trans-TM peptide […] on pIII protein] | 280 PFUs | 
EGHLFPSADSTKTTHLTL [TMT-3(18)-1, M13 bacteriophage expressing 18-mer trans-TM peptide […] on pIII protein] | 90,000 PFUs | 
LANNNLTLSPKMPGGGYW [TMT-2(18)-1, M13 bacteriophage expressing 18-mer trans-TM peptide […] on pIII protein] | 120 PFUs | 
SADSTKTTHLTL [TMT-3, M13 bacteriophage expressing 12-mer trans-TM backbone peptide […] on pIII protein] | 10,800 PFUs | Transport across human TM (human TM): comparable levels; Transport across TMs from NTHi-infected MEs versus normal MEs (rat TM; 1.5 mm chambers, rat TMs): no difference in transport; Transport across uninfected rat TM fragments compared with other species (rat TM; uninfected MEs): similar; Transport across uninfected rabbit TM fragments compared with other species (rabbit TM fragments): similar; Transport across uninfected guinea pig TM fragments compared with other species (guinea pig TM fragments): similar; Transport at lowered bulla temperature ([2]; 4°C, transport over 1 h): almost entirely eliminated; Time after death up to which transport was observed ([2]; ME recovery of phage at various times postmortem, transport ceased afterwards): up to 6 h
KISVYRSADSTKTTHLTL [TMT-3(18)-2, M13 bacteriophage expressing 18-mer trans-TM peptide […] on pIII protein] | 40,000 PFUs | 
TLSPKMPGGGYW [TMT-2, M13 bacteriophage expressing 12-mer trans-TM backbone peptide […] on pIII protein] | 5,900 PFUs | 
SPTIFSTLSPKMPGGGYW [TMT-2(18)-2, M13 bacteriophage expressing 18-mer trans-TM peptide […] on pIII protein] | 12,000 PFUs | 
VPQGATTLSPKMPGGGYW [TMT-2(18)-3, M13 bacteriophage expressing 18-mer trans-TM peptide […] on pIII protein] | 3,000 PFUs | 
